Test results from patent US5070092A, “Pyrroloindole derivatives related to DC-88A compound” (Kyowa Hakko Kogyo Co., Ltd., priority 1989, dated 1991).

Columns and labels:
dd strain male mice = test: Acute Toxicity Test; type: in vivo; details: intraperitoneal, 14 days after administration
Method: A test compound was intraperitoneally administered to dd strain male mice each weighing 20 ±1 g. MLD (the minimum lethal dose) was determined by observing the mortality for 14 days after the administration.

Sarcoma 180 tumor cells = test: Therapeutic Effect against Sarcoma 180 Tumor Cells; type: in vivo, male ddY-strain mice; details: intravenous, seven days after implantation
Method: Five male ddY-strain mice each having a weight of 18 to 20 g were used for each group as test animals, and 5×10^5 Sarcoma 180 tumor cells were implanted subcutaneously into the animals at the axilla. Ond day after the implantation, 0.2 ml of physiological saline containing a test compound in the concentration indicated in Table 3 was intravenously administered to each mouse. T/C [T: average tumor volume (mm^3) of the groups treated with the test compound, C: that of the control group which received an intravenous administration of 0.2 ml of physiological saline] was determined seven days after the implantation.

[1] = prior art U.S. Pat. No. 4,169,888, EP-A-0154445, EP-A-0339681; cited from earlier work
[2] = tested on: lymphocytic leukemia P388; details: prior art WO 87/06265, EP-A-0351865, JP 139590/89; cited from earlier work
various bacteria = details: prior art WO 87/06265, EP-A-0351865, JP 139590/89; cited from earlier work

SMILES | Acute Toxicity (MLD), minimum lethal dose (dd strain male mice) | Sarcoma 180 T/C (average tumor volume, treated/control) (Sarcoma 180 tumor cells; dose 1.0 mg/kg) | further results
COC(=O)c1c(C)[nH]c2c(OC(=O)N3CCCCC3)cc3c(c12)C(CBr)CN3C(=O)c1cc2cc(OC)c(OC)c(OC)c2[nH]1 (centres unmarked) [Compound 14] | 1.0 mg/kg | 0.098 | Sarcoma 180 T/C (average tumor volume, treated/control) (Sarcoma 180 tumor cells; dose 0.50 mg/kg): 0.20
COC(=O)c1c(C)[nH]c2c(O)cc3c(c12)C(CCl)CN3C(=O)c1cc2cc(OC)c(OC)c(OC)c2[nH]1 (centres unmarked) [Compound 2] | 1.0 mg/kg | – | –
COc1c(O)c2c(c3cc(C(=O)N4CCc5c4c(O)c(OC)c4[nH]c(C(=O)N6CC7CC78C6=CC(=O)c6[nH]cc(C)c68)cc54)[nH]c13)CCN2C(N)=O (centres unmarked) [CC-1065] | – | – | anti-tumor activity [1]: exhibit anti-tumor activity
COC(=O)c1c(C)[nH]c2c(OC(=O)N3CCCC3)cc3c(c12)C(CBr)CN3C(=O)c1cc2cc(OC)c(OC)c(OC)c2[nH]1 (centres unmarked) [Compound 15] | 1.0 mg/kg | 0.088 | Sarcoma 180 T/C (average tumor volume, treated/control) (Sarcoma 180 tumor cells; dose 0.50 mg/kg): 0.21
COC(=O)c1c(C)[nH]c2c(OC(=O)N3CCN(C)CC3)cc3c(c12)C(CBr)CN3C(=O)c1cc2cc(OC)c(OC)c(OC)c2[nH]1 (centres unmarked) [Compound 18] | 0.84 mg/kg | – | Sarcoma 180 T/C (average tumor volume, treated/control) (Sarcoma 180 tumor cells; dose 0.50 mg/kg, 0.5 mg/kg): 0.14
COC(=O)c1c(C)[nH]c2c(OC(=O)N3CCN(C)CC3)cc3c(c12)C(CBr)CN3C(=O)c1cc2cc(OC)c(OC)c(OC)c2[nH]1 (centres unmarked) [Compound 16] | 1.0 mg/kg | – | Sarcoma 180 T/C (average tumor volume, treated/control) (Sarcoma 180 tumor cells; dose 0.50 mg/kg, 0.5 mg/kg): 0.24
COC(=O)c1c(C)[nH]c2c(O[Si](C)(C)C(C)(C)C)cc3c(c12)C(CBr)CN3C(=O)c1cc2cc(OC)c(OC)c(OC)c2[nH]1 (centres unmarked) [Compound 1] | 1.0 mg/kg | – | Sarcoma 180 T/C (average tumor volume, treated/control) (Sarcoma 180 tumor cells; dose 0.25 mg/kg): 0.043
COC(=O)c1c(C)[nH]c2c(OC(=O)N(C)C)cc3c(c12)C(CBr)CN3C(=O)c1cc2cc(OC)c(OC)c(OC)c2[nH]1 (centres unmarked) [Compound 13] | 1.0 mg/kg | 0.063 | –
COC(=O)c1c(C)[nH]c2c1C13CC1CN(C(=O)c1cc4cc(OC)c(OC)c(OC)c4[nH]1)C3=CC2=O (centres unmarked) [Compound 4] | 0.5 mg/kg | – | Sarcoma 180 T/C (average tumor volume, treated/control) (Sarcoma 180 tumor cells; dose 0.25 mg/kg): 0.21
COC(=O)C1(C)NC2=C(C1=O)C13CC1CN(C(=O)c1cc4cc(OC)c(OC)c(OC)c4[nH]1)C3=CC2=O (centres unmarked) [DC-88A] | – | – | anti-tumor activity against lymphocytic leukemia P388 [2]: anti-tumor activity against lymphocytic leukemia P388; antibacterial activity (various bacteria): antibacterial activity against various bacteria
